According to ChEMBL document CHEMBL4196112, “Design of Selective sPLA2-X Inhibitor (-)-2-{2-[Carbamoyl-6-(trifluoromethoxy)-1H-indol-1-yl]pyridine-2-yl}propanoic Acid” (ACS Med Chem Lett, 2018):
Active and inactive are the calls of the source. No cut-off for these calls is given here.

Columns and labels:
[1] = tested on: Mus musculus; assay: Unbound clearance in C57Bl/6J mouse administered iv or po; type: ADME, organism-based; conditions: in vivo
[2] = target: T1, Group 10 secretory phospholipase A2 (Homo sapiens, UniProt O15496); assay: Inhibition of recombinant human sPLA2-10 using human HDL as substrate pretreated for 20 mins followed by substrate addition and measured after 60 mins by NEFA based assay
T1 sequence (O15496 whole entry): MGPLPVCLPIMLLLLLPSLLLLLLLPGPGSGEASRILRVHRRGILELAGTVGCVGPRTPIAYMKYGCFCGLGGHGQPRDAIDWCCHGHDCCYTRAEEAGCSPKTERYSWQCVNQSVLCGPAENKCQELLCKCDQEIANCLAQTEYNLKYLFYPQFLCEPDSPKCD

[3] = Intrinsic clearance in human hepatocytes assessed per million cells; type: ADME, cell-based, Hepatocyte; conditions: read-out: CLH
[4] = target: T2, Phospholipase A2 group V (Homo sapiens, UniProt P39877); assay: Inhibition of sPLA2-5 (unknown origin) using 1-palmitoyl-2-oleoyl-sn-glycero-3-phosphocholine as substrate pretreated for 20 mins followed by substrate addition and measured after 60 mins by NEFA based assay
T2 sequence (P39877 whole entry): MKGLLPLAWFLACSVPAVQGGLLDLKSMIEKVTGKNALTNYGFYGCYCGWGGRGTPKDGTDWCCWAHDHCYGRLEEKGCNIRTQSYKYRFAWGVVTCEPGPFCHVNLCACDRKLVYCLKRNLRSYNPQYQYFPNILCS

[5] = target: T1, Group 10 secretory phospholipase A2; assay: Inhibition of sPLA2-10 (unknown origin) using 1-palmitoyl-2-oleoyl-sn-glycero-3-phosphocholine as substrate pretreated for 20 mins followed by substrate addition and measured after 60 mins by NEFA based assay
[6] = target: T3, Phospholipase A2, membrane associated (Homo sapiens, UniProt P14555); assay: Inhibition of sPLA2-2A (unknown origin) using 1-palmitoyl-2-oleoyl-sn-glycero-3-phosphocholine as substrate pretreated for 20 mins followed by substrate addition and measured after 60 mins by NEFA based assay
T3 sequence (P14555 whole entry): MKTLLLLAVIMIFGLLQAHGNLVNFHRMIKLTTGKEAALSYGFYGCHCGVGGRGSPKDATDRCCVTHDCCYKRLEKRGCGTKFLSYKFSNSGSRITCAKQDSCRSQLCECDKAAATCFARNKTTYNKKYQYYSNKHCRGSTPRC

[7] = target: Phospholipase A2, membrane associated (Homo sapiens) (UniProt P14555); assay: Inhibition of sPLA2-2A (unknown origin) at 10 uM using 1-palmitoyl-2-oleoyl-sn-glycero-3-phosphocholine as substrate pretreated for 20 mins followed by substrate addition and measured after 60 mins by NEFA based assay
[8] = target: T4, Phospholipase A2 group V (Homo sapiens) (UniProt P39877); assay: Inhibition of sPLA2-5 (unknown origin) at 10 uM using 1-palmitoyl-2-oleoyl-sn-glycero-3-phosphocholine as substrate pretreated for 20 mins followed by substrate addition and measured after 60 mins by NEFA based assay
T4 sequence (whole entry): T2 sequence (P39877 whole entry)

[9] = organism: Homo sapiens; assay: Selectivity ratio of IC50 for sPLA2-5 (unknown origin) to IC50 for sPLA2-10 (unknown origin)
[10] = Lipophilicity, log D of compound at pH 7.4; conditions: buffer
[11] = organism: Homo sapiens; assay: Selectivity ratio of IC50 for sPLA2-2A (unknown origin) to IC50 for sPLA2-10 (unknown origin)
[12] = tested on: Mus musculus; assay: Anti-atherosclerosis activity in ApoE knockout pro-atherogenic western diet-induced Tac mouse carotid artery ligation model of atherosclerosis assessed as reduction in plasma esterified cholesterol levels at 75 umol/kg/day mixed with food measured for 3 weeks; type: functional, organism-based
[13] = tested on: Mus musculus; assay: Anti-atherosclerosis activity in ApoE knockout pro-atherogenic western diet-induced Tac mouse carotid artery ligation model of atherosclerosis assessed as reduction in plasma free cholesterol levels at 75 umol/kg/day mixed with food measured for 3 weeks; type: functional, organism-based
[14] = tested on: Mus musculus; assay: Anti-atherosclerosis activity in ApoE knockout pro-atherogenic western diet-induced Tac mouse carotid artery ligation model of atherosclerosis assessed as reduction in plasma free fatty acid levels at 150 umol/kg/day mixed with food measured for 3 weeks; type: functional, organism-based
[15] = tested on: Mus musculus; assay: Anti-atherosclerosis activity in ApoE knockout pro-atherogenic western diet-induced Tac mouse carotid artery ligation model of atherosclerosis assessed as increase in lumen thickness at 75 to 150 umol/kg/day mixed with food measured for 3 weeks by ultrasound biomicroscopy; type: functional, organism-based
[16] = tested on: Mus musculus; assay: Anti-atherosclerosis activity in ApoE knockout pro-atherogenic western diet-induced Tac mouse carotid artery ligation model of atherosclerosis assessed as reduction in neointima and media formation at 75 to 150 umol/kg/day mixed with food measured for 3 weeks; type: functional, organism-based
[17] = target: Group 10 secretory phospholipase A2 (Homo sapiens) (UniProt O15496)
[18] = tested on: Mus musculus; assay: Anti-atherosclerosis activity in ApoE knockout pro-atherogenic western diet-induced Tac mouse carotid artery ligation model of atherosclerosis assessed as reduction in plasma free cholesterol levels at 150 umol/kg/day mixed with food measured for 3 weeks; type: functional, organism-based
[19] = tested on: Mus musculus; assay: Anti-atherosclerosis activity in ApoE knockout pro-atherogenic western diet-induced Tac mouse carotid artery ligation model of atherosclerosis assessed as reduction in plasma triglyceride levels at 150 umol/kg/day mixed with food measured for 3 weeks; type: functional, organism-based
[20] = tested on: Mus musculus; assay: Anti-atherosclerosis activity in ApoE knockout pro-atherogenic western diet-induced Tac mouse carotid artery ligation model of atherosclerosis assessed as reduction in thickness of artery wall at 75 to 150 umol/kg/day mixed with food measured for 3 weeks by ultrasound biomicroscopy; type: functional, organism-based
[21] = tested on: Mus musculus; assay: Anti-atherosclerosis activity in ApoE knockout pro-atherogenic western diet-induced Tac mouse carotid artery ligation model of atherosclerosis assessed as reduction in plasma free fatty acid levels at 75 umol/kg/day mixed with food measured for 3 weeks; type: functional, organism-based
[22] = target: Group 10 secretory phospholipase A2 (Mus musculus) (UniProt Q9QXX3); assay: Inhibition of mouse sPLA2-10
Group 10 secretory phospholipase A2 (Mus musculus), sequence (Q9QXX3 whole entry): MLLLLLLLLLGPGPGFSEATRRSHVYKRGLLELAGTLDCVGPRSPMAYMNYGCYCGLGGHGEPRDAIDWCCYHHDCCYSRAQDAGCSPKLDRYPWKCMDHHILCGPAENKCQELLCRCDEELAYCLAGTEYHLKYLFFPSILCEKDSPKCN

[23] = tested on: Mus musculus; assay: Anti-atherosclerosis activity in ApoE knockout pro-atherogenic western diet-induced Tac mouse carotid artery ligation model of atherosclerosis assessed as reduction in plasma lipoprotein-associated cholesterol fraction levels at 150 umol/kg/day mixed with food measured for 3 weeks; type: functional, organism-based
[24] = tested on: Mus musculus; assay: Anti-atherosclerosis activity in ApoE knockout pro-atherogenic western diet-induced Tac mouse carotid artery ligation model of atherosclerosis assessed as reduction in heart rate at 75 to 150 umol/kg/day mixed with food measured for 3 weeks by doppler echocardiography; type: functional, organism-based
[25] = tested on: Mus musculus; assay: Anti-atherosclerosis activity in ApoE knockout pro-atherogenic western diet-induced Tac mouse carotid artery ligation model of atherosclerosis assessed as reduction in coronary flow reserve at 75 to 150 umol/kg/day mixed with food measured for 3 weeks by doppler echocardiography; type: functional, organism-based
[26] = tested on: Mus musculus; assay: Anti-atherosclerosis activity in ApoE knockout pro-atherogenic western diet-induced Tac mouse carotid artery ligation model of atherosclerosis assessed as reduction in plasma lipoprotein-associated cholesterol fraction levels at 75 umol/kg/day mixed with food measured for 3 weeks; type: functional, organism-based
[27] = tested on: Mus musculus; assay: Anti-atherosclerosis activity in ApoE knockout pro-atherogenic western diet-induced Tac mouse carotid artery ligation model of atherosclerosis assessed as reduction in plasma esterified cholesterol levels at 150 umol/kg/day mixed with food measured for 3 weeks; type: functional, organism-based
[28] = tested on: Mus musculus; assay: Anti-atherosclerosis activity in ApoE knockout pro-atherogenic western diet-induced Tac mouse carotid artery ligation model of atherosclerosis assessed as reduction in plasma triglyceride levels at 75 umol/kg/day mixed with food measured for 3 weeks; type: functional, organism-based

Structure (SMILES) | IC50 [2] [nM] | IC50 [4] [nM] | IC50 [5] [nM] | IC50 [6] [nM] | other results
CC(C)(Cc1cccc(-n2c(C(N)=O)cc3ccc(OC(F)(F)F)cc32)n1)C(=O)O | – | > 10000 | 320 | 3100 | –
NC(=O)c1cc2ccc(OC(F)(F)F)cc2n1-c1cnn(CCC(=O)O)c1 | – | 2700 | > 10000 | 4500 | –
C[C@H](CC(=O)O)c1cccc(-n2c(C(N)=O)cc3ccc(OC(F)(F)F)cc32)c1 | – | 8600 | 200 | 3900 | –
CC(CC(=O)O)c1cccc(-n2c(C(N)=O)cc3ccc(OC(F)(F)F)cc32)n1 (single isomer, unassigned; (+)) [listing 1 of 2 here] | – | – | 500 | 3800 | –
CC(CC(=O)O)c1cccc(-n2c(C(N)=O)cc3ccc(OC(F)(F)F)cc32)n1 (single isomer, unassigned; (+)) [listing 2 of 2 here] | – | – | – | – | inhibition [8]: inactive
CCC(Cc1cccc(-n2c(C(N)=O)cc3ccc(OC(F)(F)F)cc32)n1)C(=O)O (stereo in doubt) | – | > 10000 | 940 | 840 | –
COC(Cc1cccc(-n2c(C(N)=O)cc3ccc(OC(F)(F)F)cc32)c1)C(=O)O (stereo in doubt) [listing 1 of 2 here] | – | – | 170 | 2700 | –
CC(Cc1cccc(-n2c(C(N)=O)cc3ccc(OC(F)(F)F)cc32)n1)C(=O)O (stereo in doubt) | – | > 10000 | 570 | 1700 | –
CC(Cc1cccc(-n2c(C(N)=O)cc3ccc(OC(F)(F)F)cc32)c1)C(=O)O (stereo in doubt) | 2800 | > 10000 | 100 | 810 | –
COC(Cc1cccc(-n2c(C(N)=O)cc3ccc(OC(F)(F)F)cc32)c1)C(=O)O (stereo in doubt) [listing 2 of 2 here] | – | – | – | – | inhibition [8]: inactive
CC(Cc1cccc(-n2c(C(N)=O)cc3ccc(OC(F)(F)F)cc32)c1)C(=O)O (stereo in doubt; 10) | 350 | 510 | 32 | 57 | –
COC(Cc1cccc(-n2c(C(N)=O)cc3ccc(OC(F)(F)F)cc32)c1)C(=O)O (stereo in doubt; 11) | 140 | 2100 | 39 | 140 | –
CC(Cc1cccc(-n2c(C(N)=O)cc3ccc(OC(F)(F)F)cc32)n1)C(=O)O (stereo in doubt; 14) | 250 | 510 | 65 | 92 | –
CCC(Cc1cccc(-n2c(C(N)=O)cc3ccc(OC(F)(F)F)cc32)n1)C(=O)O (stereo in doubt; 15) | 330 | 1900 | 170 | 170 | –
CC(CC(=O)O)c1cccc(-n2c(C(N)=O)cc3ccc(OC(F)(F)F)cc32)n1 (stereo in doubt; (-)-17) | – | – | – | – | Activity [12]: inactive; Activity [13]: inactive; Activity [14]: Active; Activity [15]: inactive; Activity [16]: inactive; IC90 [17]: 362 nM; Activity [18]: Active; Activity [19]: Active; Ratio IC50 [9]: 390; Activity [20]: inactive; Activity [21]: inactive; IC90 [22]: 820 nM; Activity [23]: Active; Activity [24]: inactive; Activity [25]: inactive; Activity [26]: inactive; Activity [27]: Active; Activity [28]: inactive; Ratio IC50 [11]: 45

The next lines start with results.

IC50 [2] [nM] | IC50 [4] [nM] | IC50 [5] [nM] | IC50 [6] [nM] | Structure (SMILES) | other results
310 | – | – | – | NC(=O)c1cc2ccc(OC(F)(F)F)cc2n1-c1cccc(CCC(=O)O)c1 | CL free [1]: 1446 mL/min/kg; hepatocyte CLint [3]: 9.33 µL/min/1e6 cells
1600 | 2100 | 240 | 1200 | NC(=O)c1cc2ccc(OC(F)(F)F)cc2n1-c1ccnc(CCC(=O)O)c1 | hepatocyte CLint [3]: < 5 µL/min/1e6 cells
– | 5900 | 430 | 1900 | NC(=O)c1cc2ccc(OC(F)(F)F)cc2n1-c1ccc(CCC(=O)O)o1 | –
– | – | 4800 | – | NC(=O)c1cc2ccc(OC(F)(F)F)cc2n1-c1ccc(=O)n(CCC(=O)O)c1 | inhibition [7]: inactive; inhibition [8]: inactive
110 | 5100 | 15 | 820 | C[C@@H](CC(=O)O)c1cccc(-n2c(C(N)=O)cc3ccc(OC(F)(F)F)cc32)c1 | CL free [1]: 1025 mL/min/kg; Ratio IC50 [9]: 360; logD [10]: 1.3; Ratio IC50 [11]: 60
640 | 720 | 110 | 290 | NC(=O)c1cc2ccc(OC(F)(F)F)cc2n1-c1cc(CCC(=O)O)ccn1 | hepatocyte CLint [3]: < 5 µL/min/1e6 cells
– | – | 4800 | 4000 | NC(=O)c1cc2ccc(OC(F)(F)F)cc2n1-c1ccn(CCC(=O)O)n1 | inhibition [8]: inactive
250 | 2300 | 29 | 470 | NC(=O)c1cc2ccc(OC(F)(F)F)cc2n1-c1cccc(CCC(=O)O)n1 | hepatocyte CLint [3]: < 5 µL/min/1e6 cells
3400 | 1600 | 360 | 340 | CC(Cc1ccnc(-n2c(C(N)=O)cc3ccc(OC(F)(F)F)cc32)c1)C(=O)O (stereo in doubt) | –
830 | 180 | 140 | 44 | CC(Cc1ccnc(-n2c(C(N)=O)cc3ccc(OC(F)(F)F)cc32)c1)C(=O)O (stereo in doubt; 13) | –
